Laboratory results as given in ChEMBL document CHEMBL1201862, “PubChem BioAssay data set” (2004).
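Assay format: 96-well plates, 48-hour exposure. At the GI50, growth is halved.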 Calls of active or inactive are those of the source. Rule as the data show it: active = GI50 up to about 1.1 µM and inactive = higher.

Legend:
Assay in all cases: NCI anticancer screen, dose series, 48 h
[1] = test system: COLO 205
[2] = test system: UACC-62
[3] = test system: HL-60
[4] = test system: K562
[5] = test system: RXF 393
[6] = test system: HT-29
[7] = test system: BT-549
[8] = test system: SW-620
[9] = test system: NCI-H460
[10] = test system: UACC-257
[11] = test system: SK-OV-3
[12] = test system: SK-MEL-5
[13] = test system: MCF7
[14] = test system: Hs-578T
[15] = test system: HCT-116
[16] = test system: UO-31
[17] = test system: SF-268
[18] = test system: RPMI-8226
[19] = test system: ACHN
[20] = test system: PC-3
[21] = test system: LOX IMVI
[22] = test system: 786-0
[23] = test system: OVCAR-4
[24] = test system: A549
[25] = test system: TK-10
[26] = test system: IGROV-1
[27] = test system: SF-295
[28] = test system: M14
[29] = test system: HCC 2998
[30] = test system: MDA-MB-435
[31] = test system: HOP-92
[32] = test system: Malme-3M
[33] = test system: U-251
[34] = test system: DU-145
[35] = test system: NCI-H226
[36] = test system: NCI-H23
[37] = test system: OVCAR-8
[38] = test system: SK-MEL-28
[39] = test system: OVCAR-5
[40] = test system: SNB-19
[41] = test system: KM12
[42] = test system: NCI-H522
[43] = test system: NCI/ADR-RES
[44] = test system: MOLT-4
[45] = test system: MDA-MB-231
[46] = test system: SNB-75
[47] = test system: HOP-62
[48] = test system: CAKI-1
[49] = test system: A498
[50] = test system: CCRF-CEM
[51] = test system: EKVX
[52] = test system: MDA-N
[53] = test system: HCT-15
[54] = test system: OVCAR-3
[55] = test system: SK-MEL-2
[56] = test system: SF-539
[57] = test system: SN12C
[58] = test system: T47D
[59] = test system: SR

CC12CC(c3ccccc3O1)C(C(=O)Nc1nccs1)C(=O)N2 (stereo not given)
GI50 [1]: > 100 µM (inactive) | GI50 [2]: > 100 µM (inactive) | GI50 [3]: > 100 µM (inactive) | GI50 [4]: > 100 µM (inactive) | GI50 [5]: > 100 µM (inactive) | GI50 [6]: > 100 µM (inactive) | GI50 [7]: > 100 µM (inactive) | GI50 [8]: > 100 µM (inactive) | GI50 [9]: > 100 µM (inactive) | GI50 [10]: > 100 µM (inactive) | GI50 [11]: > 100 µM (inactive) | GI50 [12]: > 100 µM (inactive) | GI50 [13]: > 100 µM (inactive) | GI50 [14]: > 100 µM (inactive) | GI50 [15]: > 100 µM (inactive) | GI50 [16]: > 100 µM (inactive) | GI50 [17]: > 100 µM (inactive) | GI50 [18]: 98.4 µM (inactive) | GI50 [19]: > 100 µM (inactive) | GI50 [20]: > 100 µM (inactive) | GI50 [21]: > 100 µM (inactive) | GI50 [22]: > 100 µM (inactive) | GI50 [23]: > 100 µM (inactive) | GI50 [24]: > 100 µM (inactive) | GI50 [25]: > 100 µM (inactive) | GI50 [26]: > 100 µM (inactive) | GI50 [27]: > 100 µM (inactive) | GI50 [28]: > 100 µM (inactive) | GI50 [29]: > 100 µM (inactive) | GI50 [30]: > 100 µM (inactive) | GI50 [31]: 84.3 µM (inactive) | GI50 [32]: > 100 µM (inactive) | GI50 [33]: > 100 µM (inactive) | GI50 [34]: > 100 µM (inactive) | GI50 [35]: > 100 µM (inactive) | GI50 [36]: > 100 µM (inactive) | GI50 [37]: > 100 µM (inactive) | GI50 [38]: 40.5 µM (inactive) | GI50 [39]: > 100 µM (inactive) | GI50 [40]: > 100 µM (inactive) | GI50 [41]: > 100 µM (inactive) | GI50 [42]: > 100 µM (inactive) | GI50 [43]: > 100 µM (inactive) | GI50 [44]: > 100 µM (inactive) | GI50 [45]: > 100 µM (inactive) | GI50 [46]: > 100 µM (inactive) | GI50 [47]: > 100 µM (inactive) | GI50 [48]: > 100 µM (inactive) | GI50 [49]: > 100 µM (inactive) | GI50 [50]: > 100 µM (inactive) | GI50 [51]: 35.7 µM (inactive) | GI50 [52]: > 100 µM (inactive) | GI50 [53]: > 100 µM | GI50 [54]: > 100 µM (inactive) | GI50 [55]: > 100 µM (inactive)

CN(C)NC1=NS(=O)(=O)c2cc3c(cc2S1)N(N(C)C)C(=O)c1cc2c(cc1N(N(C)C)C3=O)SC(NN(C)C)=NS2(=O)=O
GI50 [1]: > 10 µM (inactive) | GI50 [3]: > 10 µM (inactive) | GI50 [4]: > 10 µM (inactive) | GI50 [5]: > 10 µM (inactive) | GI50 [6]: > 10 µM (inactive) | GI50 [7]: > 10 µM (inactive) | GI50 [8]: > 10 µM (inactive) | GI50 [9]: > 10 µM (inactive) | GI50 [10]: > 10 µM (inactive) | GI50 [11]: > 10 µM (inactive) | GI50 [12]: > 10 µM (inactive) | GI50 [13]: > 10 µM (inactive) | GI50 [14]: > 10 µM (inactive) | GI50 [15]: > 10 µM (inactive) | GI50 [16]: > 10 µM (inactive) | GI50 [17]: > 10 µM (inactive) | GI50 [18]: > 10 µM (inactive) | GI50 [19]: > 10 µM (inactive) | GI50 [20]: > 10 µM (inactive) | GI50 [21]: > 10 µM (inactive) | GI50 [22]: > 10 µM (inactive) | GI50 [23]: > 10 µM (inactive) | GI50 [24]: > 10 µM (inactive) | GI50 [25]: > 10 µM (inactive) | GI50 [26]: > 10 µM (inactive) | GI50 [27]: > 10 µM (inactive) | GI50 [56]: > 10 µM (inactive) | GI50 [28]: > 10 µM (inactive) | GI50 [29]: > 10 µM (inactive) | GI50 [31]: > 10 µM (inactive) | GI50 [32]: > 10 µM (inactive) | GI50 [33]: > 10 µM (inactive) | GI50 [34]: > 10 µM (inactive) | GI50 [35]: > 10 µM (inactive) | GI50 [36]: > 10 µM (inactive) | GI50 [37]: > 10 µM (inactive) | GI50 [38]: > 10 µM (inactive) | GI50 [57]: > 10 µM (inactive) | GI50 [39]: > 10 µM (inactive) | GI50 [40]: > 10 µM (inactive) | GI50 [41]: > 10 µM (inactive) | GI50 [42]: > 10 µM (inactive) | GI50 [43]: > 10 µM (inactive) | GI50 [44]: > 10 µM (inactive) | GI50 [46]: > 10 µM (inactive) | GI50 [47]: > 10 µM (inactive) | GI50 [58]: > 10 µM (inactive) | GI50 [48]: > 10 µM (inactive) | GI50 [49]: > 10 µM (inactive) | GI50 [50]: > 10 µM (inactive) | GI50 [51]: > 10 µM (inactive) | GI50 [59]: > 10 µM (inactive) | GI50 [53]: > 10 µM | GI50 [54]: > 10 µM (inactive) | GI50 [55]: > 10 µM (inactive)
